Assays:
[1] = tested on: ER reporter; experiment: ER reporter degradation; assay type: cell-based, human; conditions: 1 μM (legend, SERDs)
Protocol: Reporter cell lines were seeded in triplicate at a density of 1 million cells/ml in 100 μl per well in a 96 well plate and measured once. Ligand was added by Digital Dispenser (Tecan), and incubated at 37°C for the appropriate time before reading by flow cytometry. Cells were analyzed for GFP vs mCherry expression. GFP expression was normalized to mCherry signal and ligand treatments were compared to DMSO controls.

[2] = tested on: ER reporter (E3 ligase dependence); experiment: Targeted CRISPR screens, ER reporter K562 cells: E3 ligase used; assay type: cell-based, human; conditions: for E3 ligase used for ER degradation: K562 ER reporter, CRISPR screen; for E3 Ligase (Table S2): Supplemental Table S2
Protocol: To characterize the UPS pathway components involved in SERD-induced ER degradation, we performed CRISPR screens with our ER reporter in the presence multiple SERDs: fulvestrant, GDC-0927, elacestrant, giredestrant, camizestrant, amcenestrant, AZD-9496, brilanestrant, and LSZ-102. […] Taken together, these findings indicate that different classes of SERDs engage distinct ubiquitin ligases and degradation pathways to target ER.
The UPS and tiling CRISPR functional genomics screen was performed following previously described methods.[22] Briefly, the UPS CRISPR library targets 713 E1, E2, E3 ubiquitin ligases, and deubiquitinases and includes controls genes with a total of 2852 guide RNAs, cloned into the pXPR003 backbone. The UBR5 Tiling screen was created by CRISPR-SURF.[29] Viruses were produced in a T-175 format and ten percent by volume of the library virus was added to reporter cell lines in triplicates for transduction. Transduced cells were allowed to recover and expand for nine days, then treated with indicated ligand. Top and bottom 5% of cells by GFP signal were sorted for a total of at least 100,000 cells per replicate. Samples were processed as previously described.[22]
Reporter cell lines were treated with ATRA or 9-cis RA, and then sorted into four populations by eGFP/mCherry fluorescence ratios (Gates A-D), corresponding to the bottom and top 5–10% respectively (Figure S1D).[22],[23] Sorted cells were pelleted, lysed, and processed according to previous studies.[22] Briefly sgRNAs were amplified in two PCRs via Titanium Taq (Takara Bio 639210), Titanium Taq Buffer and 800uM dNTP mix and eight staggered forward primers. The first PCR also contained 200 nM SBS3-Stagger-pXPR003 forward primer and 200 nM SBS12-pXPR003 reverse primer (cycles: 5 minutes at 94°C, 15 × (30 sec at 94°C, 15 sec at 58°C, 30 sec at 72°C), 2 minutes at 72°C). Illumina adapters and barcodes were added in the second PCR (200 nM P5-SBS3 forward primer, 200 nM P7-barcode-SBS12 reverse primer). Samples were pooled and purified by agarose gel-electrophoresis (Qiagen) and NaOAc/isopropanol precipitation. Amplified guides were quantified by next-generation sequencing (Genomics Platform, Broad Institute), and analyzed for enrichment in Gate A over Gate D, representing degradation rescue.

[3] = tested on: ER; experiment: ER degradation after RNF111 or UBR5 knockdown (reporter K562; T47D western); assay type: cell-based, human; conditions: K562 ER-GFP, shUBR5 / sgRNF111, Figure S8C, D
Protocol: Cells were analyzed for GFP vs mCherry expression.
Protein concentration was quantified via Pierce BCA Protein Assay Kit (ThermoFisher, 23225), and equal amounts of lysates were run on either SDS-PAGE 3–8% Tris-Acetate or 4–12% Bis-Tris Protein Gels (NuPAGE, ThermoFisher), then transferred to a PVDF membrane (Biorad, Wet Transfer System). Membranes were blocked for 30 minutes to 1 hour at room temperature in Odyssey Blocking Buffer/PBS (LI-COR Biosciences), and incubated with primary antibodies at 4 °C overnight. Stained membranes were washed three times in Tris-buffered saline with Tween 20 (TBS-T) and incubated for 1 hour at room temperature with secondary IRDye-conjugated antibodies (LI-COR Biosciences). Membranes were washed three times in TBS-T before imaging (Odyssey Imaging System, LI-COR Biosciences).

[4] = tested on: ER and UBR5; experiment: Co-immunoprecipitation of ER-GFP and UBR5 in K562; assay type: cell-based, human; conditions: K562 ER-GFP, with MG132, 16 h
From the text: Blotting was done as described above.
Fulvestrant GDC-0927 Elacestrant Giredestrant Camizestrant Amcenestrant […]
log2 Ratio log2 Ratio log2 Ratio log2 Ratio log2 Ratio log2 Ratio […]
Amcenestrant Camizestrant GiredestrantBrilanestrant Fulvestrant ElacestrantAmcenestrant Camizestrant Giredestrant Brilanestrant […]
50 FulvestrantBrilanestrant
Figure S8. Non-endogenousligands recruitdifferent E3 ligases to induce ER degradation,Related to Figure 6 […]
VHL are highlighted in red. (C) Degradation (GFP/mCherry) of ER-GFP in K562 reporter cell lines treated with shRNAs targeting UBR5 and the specified SERDs or ER PROTACs. (D) Degradation (GFP/mCherry) of ER-GFP in K562 reporter cell lines treated with sgRNAs targeting RNF111 and the specified SERDs or ER PROTACs. (E) Western blots of T47D cells […]
treated with or without Brilanestrant. (G) Bioluminescence Resonance Energy Transfer (BRET) assay of ER, treated +/- fulvestrant or brilanestrant. (n=6 two sided t-test) (H) Western blots of ER co-immunoprecipitations from K562 ER-GFP reporter cells treated with brilanestrant and MG132 for 16 hours, and blotted with antibodies specific for GFP, and UBR5 as indicated. NS, not […]

[5] = tested on: ER and RNF111; experiment: BRET assay of RNF111 and ER; assay type: cell-based, human
From the text: Bioluminescence resonance energy transfer (BRET) experiments were done using the NanoBRET PPI kit (Promega, N1821) according to manufacturer’s instructions.

[6] = tested on: ER; conditions: cited from earlier work
From the text: SERDs are a class of molecules targeting the ER for the treatment of breast cancer. […] Given that UBR5 is similarly recruited to the NR hydrophobic cleft, we hypothesized that fulvestrant and other SERDs may employ a different mechanism for ER degradation. […] One of the best understood SERDs, fulvestrant, drastically remodels the hydrophobic cleft[16],[17] in a manner incompatible with UBR5 or NCOA binding. […] Strikingly, this correlates with clinical utility, hallmarked by the wide use of fulvestrant and recent approval of elacestrant,[53] both of which employ RNF111, in contrast to UBR5 SERDs (Table S2), none of which have been approved for clinical use. The heterogeneity of ER transcriptional pro ...

[7] = tested on: ER and RNF111; experiment: Co-immunoprecipitation of FLAG-RNF111 and ER-GFP in 293T; conditions: ± MG132
Protocol: (B) ER reporter degradation following 1 μM of specified SERD treatment. […] UBR5 is highlighted in blue, RNF111, CRBN, VHL are highlighted in red. (D) Western blots of T47D cells transduced with sgRNAs against RNF111 treated with or without fulvestrant. […] (NS, not significant, *p < 0.05, **p < 0.005, ***p < 0.0005, ****p < 0.00005, error bars represent SEM.)
Reporter cells (up to 100 million) were treated with ligand (ATRA, dexamethasone) and allowed to incubate for different time points. […] Lysates were incubated with GFP-Trap Magnetic Agarose beads (ChromoTek, GTMA-20) overnight at 4°C on a rotator. Beads were magnetically removed and washed three times with Pierce IP Lysis Buffer with ligand added before boiling in 1x NuPAGE LDS Sample Buffer (ThermoFischer, NP0007). […] Experiments were repeated and representative images are shown.

Compound | ER reporter degradation [1] | E3 ligase used for ER degradation [2] | E3 Ligase (Table S2) [2] | regulated class of ER degradation (RNF111 or UBR5) [3] | ER and UBR5 interaction by co-immunoprecipitation [4] | ER-RNF111 BRET, significance (mBU) ([5]; Figure S8G, n = 6 two sided t-test) | association of RNF111 with ER by BRET ([5]; n = 6) | ER degradation (literature) ([6]; ref [17], [53]) | ER transcriptional profile following SERD treatment ([6]; ref [17],[55]) | effect on helix 12 and ER hydrophobic cleft ([6]; ref [54]) | association of RNF111 with ER by co-immunoprecipitation [7]
CC/C(=C(/c1ccc(/C=C/C(=O)O)cc1)c1ccc2[nH]ncc2c1)c1ccc(F)cc1Cl [brilanestrant] | induced ER reporter degradation | required UBR5 for degradation | UBR5 | UBR5 Regulated | increased ER and UBR5 interactions |  |  |  |  |  | 
C[C@]12CC[C@@H]3c4ccc(O)cc4C[C@@H](CCCCCCCCC[S+]([O-])CCCC(F)(F)C(F)(F)F)[C@H]3[C@@H]1CC[C@@H]2O (stereo partly drawn) [fulvestrant] | induced ER reporter degradation | employed a different E3 ligase, RNF111 | RNF111 | RNF111 Regulated |  | * (*p < 0.05) | induces association of RNF111 with ER | lead to ER degradation | most antagonistic of tested SERDs | destabilize helix 12 and block the ER hydrophobic cleft, preventing coactivation | induces association of RNF111 with ER

Reference: article PMC11134608, “UBR5 forms ligand-dependent complexes on chromatin to regulate nuclear hormone receptor stability” (Molecular cell, 2023)
